Measured values taken from patent US20210277015A1, “OGA INHIBITOR COMPOUNDS” (Janssen Pharmaceutica NV, priority 2018, published 2021).

Target: T1, recombinant human Meningioma Expressed Antigen 5 (MGEA5), also referred to as O-GlcNAcase (OGA) (Homo sapiens, UniProt O60502)
T1 construct: Full length OGA enzyme was purchased at OriGene (cat #TP322411); purchased OriGene TP322411
T1 sequence (O60502 1-916): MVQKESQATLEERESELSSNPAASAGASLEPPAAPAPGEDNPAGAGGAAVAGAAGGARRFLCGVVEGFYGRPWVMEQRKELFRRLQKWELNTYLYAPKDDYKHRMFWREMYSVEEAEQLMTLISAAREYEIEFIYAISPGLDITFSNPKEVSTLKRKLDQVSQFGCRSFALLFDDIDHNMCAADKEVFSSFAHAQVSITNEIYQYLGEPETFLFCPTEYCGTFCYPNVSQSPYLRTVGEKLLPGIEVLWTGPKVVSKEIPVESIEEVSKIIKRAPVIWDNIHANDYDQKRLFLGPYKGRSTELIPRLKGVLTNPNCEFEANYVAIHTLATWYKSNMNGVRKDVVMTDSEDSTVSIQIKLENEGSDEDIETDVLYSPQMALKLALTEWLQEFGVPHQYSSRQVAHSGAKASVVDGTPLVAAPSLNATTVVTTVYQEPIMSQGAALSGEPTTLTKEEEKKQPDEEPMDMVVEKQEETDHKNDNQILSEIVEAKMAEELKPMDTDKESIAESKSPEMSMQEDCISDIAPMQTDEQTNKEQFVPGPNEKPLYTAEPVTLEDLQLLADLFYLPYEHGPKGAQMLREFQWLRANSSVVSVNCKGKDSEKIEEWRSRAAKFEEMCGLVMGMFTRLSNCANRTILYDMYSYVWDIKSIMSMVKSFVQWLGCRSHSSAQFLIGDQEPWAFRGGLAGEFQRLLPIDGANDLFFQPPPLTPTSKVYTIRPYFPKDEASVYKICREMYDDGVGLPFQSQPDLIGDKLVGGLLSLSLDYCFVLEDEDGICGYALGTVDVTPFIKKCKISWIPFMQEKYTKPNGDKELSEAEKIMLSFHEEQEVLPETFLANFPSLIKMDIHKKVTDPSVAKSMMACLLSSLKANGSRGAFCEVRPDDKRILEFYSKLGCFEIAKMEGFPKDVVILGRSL
Assay: OGA biochemical assay (inhibition of FM-GlcNAc hydrolysis, fluorescence)
Conditions: FM-GlcNAc substrate; for IC50: 6 h at room temperature, read-out: Enzymatic hOGA, pIC50 (converted); for Emax / Enzymatic Emax (%): maximal effect; for Emax: read-out: Enzymatic Emax (%)
From the text: The assay is based on the inhibition of the hydrolysis of fluorescein mono-β-D-N-Acetyl-Glucosamine (FM-GlcNAc) (Mariappa et al. 2015, Biochem J 470:255) by the recombinant human Meningioma Expressed Antigen 5 (MGEA5), also referred to as O-GlcNAcase (OGA). The hydrolysis FM-GlcNAc (Marker Gene technologies, cat #M1485) results in the formation of β-D-N-glucosamineacetate and fluorescein. The fluorescence of the latter can be measured at excitation wavelength 485 nm and emission wavelength 538 nm. An increase in enzyme activity results in an increase in fluorescence signal. Full length OGA enzyme was purchased at OriGene (cat #TP322411). The enzyme was stored in 25 mM Tris.HCl, pH 7.3, 100 mM glycine, 10% glycerol at −20° C. Thiamet G and GlcNAcStatin were tested as reference compounds (Yuzwa et al. 2008 Nature Chemical Biology 4:483; Yuzwa et al. 2012 Nature Chemical Biology 8:393). The assay was performed in 200 mM Citrate/phosphate buffer supplemented with 0.005% Tween-20. 35.6 g Na2HPO4 2 H2O (Sigma, #C0759) were dissolved in 1 L water to obtain a 200 mM solution. 19.2 g citric acid (Merck, #1.06580) was dissolved in 1 L water to obtain a 100 mM solution. pH of the sodium phosphate solution was adjusted with the citric acid solution to 7.2. The buffer to stop the reaction consists of a 500 mM Carbonate buffer, pH 11.0. 734 mg FM-GlcNAc were dissolved in 5.48 mL DMSO to obtain a 250 mM solution and was stored at −20° C. OGA was used at a 2 nM concentration and FM-GlcNAc at a 100 uM final concentration. Dilutions were prepared in assay buffer.
50 nl of a compound dissolved in DMSO was dispensed on Black Proxiplate™ 384 Plus Assay plates (Perkin Elmer, #6008269) and 3 μl fl-OGA enzyme mix added subsequently. Plates were pre-incubated for 60 min at room temperature and then 2 μl FM-GlcNAc substrate mix added. […] Plates were briefly centrifuged for 1 min at 1000 rpm and incubate at room temperature for 6 h. To stop the reaction 5 μl STOP buffer were added and plates centrifuge again 1 min at 1000 rpm. Fluorescence was quantified in the Thermo Scientific Fluoroskan Ascent or the PerkinElmer EnVision with excitation wavelength 485 nm and emission wavelength 538 nm.
For analysis a best-fit curve is fitted by a minimum sum of squares method. From this an IC50 value and Hill coefficient was obtained. High control (no inhibitor) and low control (saturating concentrations of standard inhibitor) were used to define the minimum and maximum values.

IC50 [nM]	Emax [%]	Enzymatic Emax (%)	SMILES
126	102		CC(c1cc2c(cc1F)OCCO2)N1CC[C@H](Cc2ncc(F)cc2F)C1 (stereo partly drawn) [Product 27]
63.1	101		Cc1cnc(C[C@H]2CCN(C(C)c3cc4c(cc3F)OCCO4)C2)c(C)n1 (mixture of isomers) [Product 96]
251	101		Cc1cnc(C[C@H]2CCN(C(C)c3ccc4c(n3)OCCO4)C2)c(C)n1 (stereo partly drawn) [Product 24]
158	100		COc1cc(CC2(C)CCN(C(C)c3ccc4c(n3)OCCO4)C2)cc(C)n1 (mixture of isomers) [Product 91]
1580	84		COc1cc(O[C@@H]2CCN(C(C)c3ccc4c(n3)OCCO4)C2)cc(C)n1 (mixture of isomers) [Product 76]
631	96		Cc1cc(C[C@H]2CCN([C@H](C)c3cc4c(cc3F)OCCO4)C2)cc(C)n1 [Product 31]
7940	55		COc1cc(C[C@]2(C)CCN([C@@H](C)c3ccc4c(n3)OCCO4)C2)cc(C)n1 (single isomer, unassigned) [Product 93]
794	94		Cc1cc(OCC2(C)CCN(C(C)c3ccc4c(n3)OCCO4)C2)cc(C)n1 (stereo not drawn) [Product 77]
6310	63		COc1cc(C[C@]2(C)CCN([C@H](C)c3ccc4c(n3)OCCO4)C2)cc(C)n1 (single isomer, unassigned) [Product 92]
> 10000		37	Cc1cnc(C[C@H]2CCN(C(C)c3cc4c(cc3F)OCCO4)C2)c(C)n1 (single isomer, unassigned) [Product 97]
398	99		COc1cc(O[C@H]2CCN(C(C)c3ccc4c(n3)OCCO4)C2)cc(C)n1 (single isomer, unassigned) [Product 64]
251	99		Cc1cc(C[C@@H]2CCN([C@H](C)c3cc4c(cc3F)OCCO4)C2)cc(C)n1 [Product 44]
> 10000		35	Cc1cnc(C[C@H]2CCN(C(C)c3ccc4c(n3)OCCO4)C2)c(C)n1 (single isomer, unassigned) [Product 26]
1000	95		COc1cc(O[C@H]2CCN(C(C)c3ccc4c(n3)OCCO4)C2)cc(C)n1 (stereo partly drawn) [Product 63]
126	102		COc1cc(C[C@H]2CCN(C(C)c3cnc4c(c3)C(=O)N(C)CC4)C2)cc(C)n1 (stereo partly drawn) [Product 33]
6170	61		Cc1cc(C[C@H]2CCN(Cc3ccc4c(c3)OCCN4C)C2)cc(C)n1 [Product 2]
1000	93		COc1cc(C[C@@]2(C)CCN([C@H](C)c3ccc4c(n3)OCCO4)C2)cc(C)n1 (single isomer, unassigned) [Product 94]
20	102		Cc1cc(C[C@H]2CCN(C(C)c3cc4c(cc3F)OCCO4)C2)cc(C)n1 (stereo partly drawn) [Product 30]
> 10000		38	COc1cc(C[C@H]2CCN(C(C)c3ccc4c(n3)OCCC4)C2)cc(C)n1 (single isomer, unassigned) [Product 88]
7940	58		COc1cc(C[C@H]2CCN([C@H](C)c3cnc4c(c3)C(=O)N(C)CC4)C2)cc(C)n1 [Product 34]

IC50 [nM]	Emax [%]	Enzymatic Emax (%)	SMILES
501	99		Cc1cc(C2CCN(C(C)c3ccc4c(n3)OCCO4)C2)cc(C)n1 (stereo not drawn) [Product 3]
1260	94		Cc1cc(O[C@H]2CCN(C(C)c3ccc4c(n3)OCCO4)C2)cc(C)n1 (mixture of isomers) [Product 70]
1000	93		COc1cc(C[C@@H]2CCN([C@H](C)c3cc4c(cc3F)OCCO4)C2)cc(C)n1 [Product 42]
251	97		Cc1cc(OC[C@@H]2CCN(C(C)c3ccc4c(n3)OCCO4)C2)cc(C)n1 (stereo partly drawn) [Product 46]
158	101		Cc1cc(C[C@H]2CCN(C(C)c3ccc4c(n3)OCCO4)C2)cc(C)n1 (stereo partly drawn) [Product 12]
200		99	COc1cc(C[C@H]2CCN(C(C)c3nc4c(cc3F)CCO4)C2)cc(C)n1 (single isomer, unassigned) [Product 85]
100	103		COc1cc(C[C@H]2CCN(C(C)c3ccc4c(n3)OCCO4)C2)cc(C(F)(F)F)n1 (stereo partly drawn) [Product 4]
31.6		103	Cc1cnc(C[C@H]2CCN(C(C)c3cc4c(cc3F)OCCO4)C2)c(C)n1 (single isomer, unassigned) [Product 98]
2000	85		Cc1cc(C[C@H]2CCN(C(C)c3ccc4c(c3)OCCN4C)C2)cc(C)n1 (stereo partly drawn) [Product 1]
398	97		CC(c1ccc2c(n1)OCCO2)N1CC[C@H](Cc2ncc(F)cc2F)C1 (single isomer, unassigned) [Product 23]
5010		67	CC(c1cc2c(cc1F)OCCO2)N1CC[C@H](Cc2ncc(F)cc2F)C1 (single isomer, unassigned) [Product 28]
631	94		CC(c1ccc2c(n1)OCCO2)N1CC[C@H](Cc2ncc(F)cc2F)C1 (stereo partly drawn) [Product 21]
1000	91		Cc1cc(C[C@H]2CCN([C@H](C)c3ccc4c(c3)OCC4)C2)cc(C)n1 (single isomer, unassigned) [Product 13]
794	92		COc1cc(C[C@H]2CCN([C@H](C)c3cc4c(cc3F)NCCO4)C2)cc(C)n1 (racemic) [Product 81]
126		99	COc1cc(C[C@H]2CCN(C(C)c3ccc4c(n3)OCCC4)C2)cc(C)n1 (single isomer, unassigned) [Product 87]
158		100	Cc1cnc(C[C@H]2CCN(C(C)c3ccc4c(n3)OCCO4)C2)c(C)n1 (single isomer, unassigned) [Product 25]
> 10000	32		C[C@H](c1ccc2c(n1)OCCO2)N1CC[C@H](Cc2ncc(F)cc2F)C1 (single isomer, unassigned) [Product 22]
100	100		COc1cc(C[C@@H]2CCN(C(C)c3ccc4c(n3)OCCO4)C2)cc(C)n1 (mixture of isomers) [Product 89]
63.1	101		Cc1cc(C[C@@H]2CCN(C(C)c3ccc4c(n3)OCCO4)C2)cc(C)n1 (mixture of isomers) [Product 78]
